Source: ChEMBL document CHEMBL1145498, “A systematic interaction map of validated kinase inhibitors with Ser/Thr kinases” (Proc Natl Acad Sci U S A, 2007)
Calls of active or inactive are those of the source. The rule behind the calls is not given here.

Tests used:
[1] = target: Eukaryotic elongation factor 2 kinase (Homo sapiens, UniProt O00418); assay: Inhibition of eEF2 kinase
[2] = target: Epidermal growth factor receptor (Homo sapiens, UniProt P00533)
[3] = Inhibition of nerve growth factor-mediated MAP kinase activity in […] cells; assay type: cell-based; settings: PC-12
[4] = Inhibition of Pho85p
Mus musculus = organism: Mus musculus; assay: Inhibition of LPS-stimulated TNFalpha release in mouse; assay type: functional
[5] = Inhibition of VEGFR
[6] = target: Cyclin-dependent kinase 1 (Homo sapiens, UniProt P06493); assay: Inhibition of Cdk1
Sequence of Cyclin-dependent kinase 1 (P06493 whole entry): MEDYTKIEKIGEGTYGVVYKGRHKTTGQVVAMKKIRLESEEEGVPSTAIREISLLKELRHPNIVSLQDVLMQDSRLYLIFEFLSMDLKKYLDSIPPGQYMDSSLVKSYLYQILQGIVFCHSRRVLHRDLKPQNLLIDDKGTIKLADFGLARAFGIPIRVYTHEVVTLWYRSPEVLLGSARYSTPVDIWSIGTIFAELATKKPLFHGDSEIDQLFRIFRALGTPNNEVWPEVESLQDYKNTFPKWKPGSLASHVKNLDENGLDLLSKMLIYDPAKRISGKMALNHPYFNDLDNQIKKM

[7] = Inhibition of p34cdc2/cyclin B
[8] = target: Vascular endothelial growth factor receptor 3 (Homo sapiens, UniProt P35916); assay: Inhibition of VEGFR3
THP-1 = assay: Inhibition of LPS-stimulated IL1 production in human THP1 cells; assay type: functional, cell-based
RAW264.7 = assay: Inhibition of LPS induced iNOS induced expression in mouse Raw264.7cells; assay type: functional, cell-based
[9] = target: T1, Mitogen-activated protein kinase 1 (Homo sapiens, UniProt P28482); assay: Inhibition of ERK2
T1 sequence (P28482 whole entry): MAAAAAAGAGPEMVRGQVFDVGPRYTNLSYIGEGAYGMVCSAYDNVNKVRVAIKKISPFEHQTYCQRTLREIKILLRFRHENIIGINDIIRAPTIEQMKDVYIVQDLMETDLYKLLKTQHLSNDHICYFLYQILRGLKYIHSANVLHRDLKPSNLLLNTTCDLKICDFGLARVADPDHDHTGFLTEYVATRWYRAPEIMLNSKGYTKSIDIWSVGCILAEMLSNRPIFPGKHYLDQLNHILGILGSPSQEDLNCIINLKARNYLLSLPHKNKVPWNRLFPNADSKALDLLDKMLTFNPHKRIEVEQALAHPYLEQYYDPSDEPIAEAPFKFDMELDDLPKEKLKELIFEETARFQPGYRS

[10] = Binding affinity at PKA
[11] = target: T1, Mitogen-activated protein kinase 1; assay: Binding affinity to ERK2
A549 = assay: Antiproliferative activity against human A549 cells; assay type: functional, cell-based
[12] = target: Dual specificity protein kinase CLK3 (Mus musculus, UniProt O35492); assay: Inhibition of mouse Clk3
Sequence of Dual specificity protein kinase CLK3 (O35492 whole entry): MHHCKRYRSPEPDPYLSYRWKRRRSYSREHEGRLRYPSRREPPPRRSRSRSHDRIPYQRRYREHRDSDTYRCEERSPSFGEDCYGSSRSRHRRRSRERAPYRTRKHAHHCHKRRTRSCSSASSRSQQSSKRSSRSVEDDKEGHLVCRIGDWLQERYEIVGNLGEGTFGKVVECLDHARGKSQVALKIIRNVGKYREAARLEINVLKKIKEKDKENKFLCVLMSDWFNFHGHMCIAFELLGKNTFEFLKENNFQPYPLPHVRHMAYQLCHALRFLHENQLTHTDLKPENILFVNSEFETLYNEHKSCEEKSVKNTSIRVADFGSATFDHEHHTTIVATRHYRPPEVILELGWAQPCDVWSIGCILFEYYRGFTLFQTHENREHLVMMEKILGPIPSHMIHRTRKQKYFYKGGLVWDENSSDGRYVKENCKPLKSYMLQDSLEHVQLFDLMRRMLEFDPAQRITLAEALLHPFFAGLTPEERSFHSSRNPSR

[13] = Inhibition of Cdc25 phosphatase activity
Homo sapiens = organism: Homo sapiens; assay: Reduction of growth in human acute leukemic blasts; assay type: functional
[14] = Inhibition of MAPK
[15] = target: Tyrosine-protein kinase ZAP-70 (Homo sapiens, UniProt P43403); assay: Inhibition of ZAP70
Sequence of Tyrosine-protein kinase ZAP-70 (P43403 whole entry): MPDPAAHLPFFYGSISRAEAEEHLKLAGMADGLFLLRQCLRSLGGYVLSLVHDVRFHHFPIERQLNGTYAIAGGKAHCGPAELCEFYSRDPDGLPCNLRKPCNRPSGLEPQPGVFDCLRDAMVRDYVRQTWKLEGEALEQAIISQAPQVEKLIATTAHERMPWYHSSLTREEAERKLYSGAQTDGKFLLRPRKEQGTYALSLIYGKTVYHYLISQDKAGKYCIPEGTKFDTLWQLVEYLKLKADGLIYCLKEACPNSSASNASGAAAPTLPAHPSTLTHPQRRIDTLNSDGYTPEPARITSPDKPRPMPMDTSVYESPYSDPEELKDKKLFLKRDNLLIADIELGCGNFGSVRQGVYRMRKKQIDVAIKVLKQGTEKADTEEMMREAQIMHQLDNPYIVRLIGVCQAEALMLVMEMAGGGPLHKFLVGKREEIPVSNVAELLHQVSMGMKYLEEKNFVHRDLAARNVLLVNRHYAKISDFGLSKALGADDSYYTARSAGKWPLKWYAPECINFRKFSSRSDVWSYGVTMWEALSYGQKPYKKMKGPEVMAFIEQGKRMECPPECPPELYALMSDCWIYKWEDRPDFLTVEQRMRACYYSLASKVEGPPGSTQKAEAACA

[16] = target: Tyrosine-protein kinase ITK/TSK (Homo sapiens, UniProt Q08881); assay: Inhibition of Itk
RBL-2H3 = assay: Inhibition of FcepsilonRI-mediated 5-HT release in rat RBL2H3 cells; assay type: functional, cell-based
[17] = Inhibition of diacylglycerol kinase in isolated platelet membrane; assay type: cell membranes
[18] = target: Tyrosine-protein kinase SYK (Homo sapiens, UniProt P43405); assay: Inhibition of Syk
[19] = target: Insulin-like growth factor 1 receptor (Homo sapiens, UniProt P08069); assay: Inhibition of IGF1R autophosphorylation in human MCF7 cells; assay type: cell-based
[20] = Agonist activity at yeast aryl hydrocarbon receptor; assay type: functional, Saccharomyces cerevisiae
[21] = target: Aryl hydrocarbon receptor (Homo sapiens, UniProt P35869); assay: Agonist activity at human aryl hydrocarbon receptor; assay type: functional
[22] = Inhibition of Plx1
[23] = Inhibition of JNK
[24] = target: Casein kinase II subunit alpha (Homo sapiens, UniProt P68400); assay: Inhibition of CK2
Sequence of Casein kinase II subunit alpha (P68400 whole entry): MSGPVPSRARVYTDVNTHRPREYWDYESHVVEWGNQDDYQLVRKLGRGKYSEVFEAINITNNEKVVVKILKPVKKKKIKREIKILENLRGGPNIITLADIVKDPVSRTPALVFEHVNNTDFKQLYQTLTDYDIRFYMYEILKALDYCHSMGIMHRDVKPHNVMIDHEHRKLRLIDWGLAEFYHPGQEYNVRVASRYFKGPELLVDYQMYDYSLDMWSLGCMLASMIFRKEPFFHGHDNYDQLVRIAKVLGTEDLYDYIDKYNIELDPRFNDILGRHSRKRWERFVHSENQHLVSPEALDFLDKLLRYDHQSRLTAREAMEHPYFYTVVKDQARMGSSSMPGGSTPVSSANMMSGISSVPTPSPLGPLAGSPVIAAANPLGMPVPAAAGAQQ

NT2 = assay: Cell cycle arrest in human NT2 cells assessed as accumulation at G1 phase; assay type: functional, cell-based
[25] = Inhibition of GSK3
[26] = target: Membrane-associated tyrosine- and threonine-specific cdc2-inhibitory kinase (Homo sapiens, UniProt Q99640); assay: Inhibition of Myt1
Sequence of Membrane-associated tyrosine- and threonine-specific cdc2-inhibitory kinase (Q99640 whole entry): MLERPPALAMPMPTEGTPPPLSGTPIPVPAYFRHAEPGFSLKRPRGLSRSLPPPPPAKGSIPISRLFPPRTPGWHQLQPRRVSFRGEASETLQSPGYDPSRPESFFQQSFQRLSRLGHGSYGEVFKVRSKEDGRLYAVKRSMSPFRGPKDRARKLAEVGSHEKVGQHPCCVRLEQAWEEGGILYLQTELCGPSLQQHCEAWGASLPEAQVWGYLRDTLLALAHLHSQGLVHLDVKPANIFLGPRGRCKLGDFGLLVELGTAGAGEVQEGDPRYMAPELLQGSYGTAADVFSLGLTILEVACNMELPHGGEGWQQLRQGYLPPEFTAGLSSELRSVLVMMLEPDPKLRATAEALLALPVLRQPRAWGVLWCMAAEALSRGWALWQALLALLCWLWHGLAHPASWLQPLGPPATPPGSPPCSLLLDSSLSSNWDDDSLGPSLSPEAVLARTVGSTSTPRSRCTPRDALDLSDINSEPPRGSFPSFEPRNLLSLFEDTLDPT

Angiopoietin-1 receptor = Angiopoietin-1 receptor (Homo sapiens, UniProt Q02763); assay: Inhibition of Tie2
Sequence of Angiopoietin-1 receptor (Q02763 whole entry): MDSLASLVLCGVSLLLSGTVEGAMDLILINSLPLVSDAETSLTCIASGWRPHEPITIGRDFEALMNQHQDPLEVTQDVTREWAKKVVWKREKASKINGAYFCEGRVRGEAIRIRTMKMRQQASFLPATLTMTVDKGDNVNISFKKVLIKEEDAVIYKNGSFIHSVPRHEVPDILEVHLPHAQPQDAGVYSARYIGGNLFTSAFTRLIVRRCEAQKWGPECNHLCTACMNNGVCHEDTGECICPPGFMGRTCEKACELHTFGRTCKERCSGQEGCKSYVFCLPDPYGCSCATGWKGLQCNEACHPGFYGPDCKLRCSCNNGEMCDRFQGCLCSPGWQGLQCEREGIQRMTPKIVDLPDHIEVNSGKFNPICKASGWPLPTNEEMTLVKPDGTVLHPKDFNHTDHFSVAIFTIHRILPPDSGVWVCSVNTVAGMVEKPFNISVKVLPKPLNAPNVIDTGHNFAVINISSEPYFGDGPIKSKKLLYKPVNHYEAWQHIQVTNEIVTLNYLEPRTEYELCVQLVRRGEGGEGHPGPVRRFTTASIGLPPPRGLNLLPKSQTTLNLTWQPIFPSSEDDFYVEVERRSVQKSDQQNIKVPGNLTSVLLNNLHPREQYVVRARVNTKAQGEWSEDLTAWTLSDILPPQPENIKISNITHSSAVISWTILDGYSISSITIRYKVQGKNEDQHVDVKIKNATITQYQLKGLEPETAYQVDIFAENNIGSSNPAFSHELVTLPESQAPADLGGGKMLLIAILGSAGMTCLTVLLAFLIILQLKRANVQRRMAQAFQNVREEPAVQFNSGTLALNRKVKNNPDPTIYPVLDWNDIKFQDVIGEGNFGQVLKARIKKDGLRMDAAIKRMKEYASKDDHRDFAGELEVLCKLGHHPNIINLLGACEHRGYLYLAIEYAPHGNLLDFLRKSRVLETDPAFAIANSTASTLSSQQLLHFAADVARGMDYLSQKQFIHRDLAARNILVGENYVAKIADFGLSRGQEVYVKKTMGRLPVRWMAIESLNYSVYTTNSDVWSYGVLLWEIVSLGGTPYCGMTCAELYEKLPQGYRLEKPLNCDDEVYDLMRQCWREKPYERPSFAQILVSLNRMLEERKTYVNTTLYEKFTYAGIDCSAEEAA

[27] = target: Nitric oxide synthase, inducible (Homo sapiens, UniProt P35228); assay: Inhibition of nitric oxide synthase in […]; assay type: cell-based

Sequence of Epidermal growth factor receptor (P00533 whole entry): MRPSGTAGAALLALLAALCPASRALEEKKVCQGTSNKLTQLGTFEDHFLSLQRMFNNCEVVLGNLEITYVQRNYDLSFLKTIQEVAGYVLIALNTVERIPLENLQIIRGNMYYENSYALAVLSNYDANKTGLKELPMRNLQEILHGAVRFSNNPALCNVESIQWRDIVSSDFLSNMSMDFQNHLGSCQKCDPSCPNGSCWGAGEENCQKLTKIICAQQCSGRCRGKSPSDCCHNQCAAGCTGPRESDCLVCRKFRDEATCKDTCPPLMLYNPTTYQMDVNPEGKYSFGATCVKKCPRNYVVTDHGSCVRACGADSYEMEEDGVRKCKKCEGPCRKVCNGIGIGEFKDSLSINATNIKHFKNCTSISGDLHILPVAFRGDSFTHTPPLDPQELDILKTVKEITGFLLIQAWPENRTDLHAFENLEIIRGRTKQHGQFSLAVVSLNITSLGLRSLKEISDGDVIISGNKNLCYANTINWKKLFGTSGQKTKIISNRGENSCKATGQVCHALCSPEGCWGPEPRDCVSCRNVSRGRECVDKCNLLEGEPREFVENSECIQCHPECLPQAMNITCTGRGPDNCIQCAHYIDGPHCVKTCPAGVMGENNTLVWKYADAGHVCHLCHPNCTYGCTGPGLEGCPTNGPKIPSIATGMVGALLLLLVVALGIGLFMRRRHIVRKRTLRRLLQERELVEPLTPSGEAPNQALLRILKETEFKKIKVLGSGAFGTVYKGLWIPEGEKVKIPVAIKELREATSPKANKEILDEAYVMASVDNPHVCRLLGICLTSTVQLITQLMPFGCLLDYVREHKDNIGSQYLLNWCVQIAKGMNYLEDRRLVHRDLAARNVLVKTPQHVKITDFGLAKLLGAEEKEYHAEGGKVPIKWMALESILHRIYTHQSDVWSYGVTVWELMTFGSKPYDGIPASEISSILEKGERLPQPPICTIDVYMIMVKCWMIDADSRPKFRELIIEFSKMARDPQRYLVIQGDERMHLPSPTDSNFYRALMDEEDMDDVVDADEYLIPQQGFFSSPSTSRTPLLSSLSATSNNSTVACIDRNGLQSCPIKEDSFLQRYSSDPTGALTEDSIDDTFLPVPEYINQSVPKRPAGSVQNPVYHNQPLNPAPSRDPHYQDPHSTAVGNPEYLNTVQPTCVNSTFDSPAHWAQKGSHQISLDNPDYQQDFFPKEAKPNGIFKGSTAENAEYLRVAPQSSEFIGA

## Cc1cc(C=C2C(=O)C=CC2=O)cc(C)c1O
[1]
  IC50: 0.44 µM
[2]
  IC50: 440 µM

## COc1cccc(-c2cc(=O)c3ccccc3o2)c1N
[3]
  IC50: 2 µM

## CC(C)n1cnc2/c(=N/c3cccc(Cl)c3)nc(NCCO)[nH]c21
[4]
  IC50: 2 µM

## CSc1nc(-c2ccc(F)cc2)c(-c2ccnc(NC(C)c3ccccc3)c2)[nH]1 (racemic)
Mus musculus
  ED50: 1.33 mg/kg

## COc1cc2c(cc1OC)-c1n[nH]c(Nc3cccc(F)c3)c1C2
[5]
  IC50: 3.1 µM
[6]
  IC50: > 10 µM

## CCOc1cc2ncnc(Nc3cccc(Br)c3)c2cc1OCC
[7]
  IC50: 300 µM

## N#CCCc1ccc2c(c1)-c1[nH]c3ccc([N+](=O)[O-])cc3c1CC(=O)N2 [ALSTERPAULLONE 2]
[8]
  IC50: 1 µM

## COc1nccc(-c2c(-c3ccc(F)cc3)ncn2[C@H]2CC[C@H](O)CC2)n1
THP-1
  IC50: 0.12 µM

## COc1cc(C[C@H]2C(=O)OC[C@@H]2Cc2ccc(OC)c(OC)c2)ccc1O [ARCTIGENIN]
RAW264.7
  IC50: 0.01 µM

## N=C(N)NCCNS(=O)(=O)c1cccc2cnccc12
[9]
  Kd: 5 µM
[10]
  Ki: 2.3 µM

## CCOc1ccc(/C=C2/SC(=O)N(CCN)C2=O)cc1 [HIAZOLIDINEDIONE1]
[11]
  Kd: 5 µM
A549
  IC50: ≤ 25 µM

## CCN1/C(=C/C(C)=O)Sc2ccc(OC)cc21
[12]
  IC50: > 10 µM

## Nc1n[nH]c2nc3ccccc3nc12 [QUINOXALINE1]
[13]
  IC50: > 10 µM

## CN(C)C[C@@H]1CCn2cc(c3ccccc32)C2=C(C(=O)NC2=O)c2cn(c3ccccc23)CCO1 [RUBOXISTAURIN]
Homo sapiens
  Activity: Active

## Cn1cnc2c(NCc3ccccc3)nc(NCCO)nc21 [OLOMOUCINE]
[14]
  IC50: 25 µM

## O=S(=O)(c1cccc2c(Cl)cccc12)N1CCCNCC1
[10]
  Ki: 32 µM

## NCCNc1ncc(C(N)=O)c(Nc2cccc(C(F)(F)F)c2)n1
[15]
  IC50: 11.2 µM
[16]
  IC50: 22.6 µM
RBL-2H3
  IC50: 0.46 µM

## Cc1nc2sccn2c(=O)c1CCN1CCC(=C(c2ccccc2)c2ccc(F)cc2)CC1
[17]
  IC50: 2.8 µM

## CCN(CC)CCNC(=O)c1c(C)[nH]c(/C=C2\C(=O)Nc3ccc(Cl)cc32)c1C [SU-11652]
[2]
  IC50: > 20 µM

## O=C1Nc2ccccc2/C1=C\c1ccc[nH]1
[18]
  IC50: 0.014 µM

## O=c1c2ccccc2[nH]c(=S)n1CCN1CCC(=C(c2ccc(F)cc2)c2ccc(F)cc2)CC1 [DIACYLGLYCEROL KINASE INHIBITOR II]
[17]
  IC50: 0.3 µM

## COc1ccc(Cl)cc1NC(=O)Nc1cc(C)nc2ccccc12
[19]
  IC50: 12 µM

## CC(=O)O/N=C1/C(=C2/C(=O)Nc3cc(Br)ccc32)Nc2ccccc21 [6-BROMOINDIRUBIN-3'-ACETOXIME]
[20]
  EC50: ≥ 0.1 µM
[21]
  EC50: 0.16 µM

## CC(C)(C)n1nc(-c2ccc(Cl)cc2)c2c(N)ncnc21
[15]
  IC50: > 100 µM

## C/C(O)=C(\C#N)C(=O)Nc1cc(Br)ccc1Br
[22]
  IC50: 10 µM

## CCCCc1c(-c2ccc(O)cc2)[nH]c2nccnc12 [ALOISINE A]
[23]
  IC50: 3 µM
[24]
  IC50: ≥ 100 µM
NT2
  IC50: 7 µM
[25]
  IC50: 0.5 µM

## CN1CCc2[nH]c(=S)c(C#N)c(-c3cccs3)c2C1
[26]
  IC50: 1.2 µM
Angiopoietin-1 receptor
  IC50: > 10 µM

## COc1cc(/C=C/C(=O)CC(=O)/C=C/c2ccc(O)c(OC)c2)ccc1O [CURCUMIN]
[27]
  IC50: 6 µM
